{"source": "paper PMC5384759", "about": "(ACS Chemical Neuroscience, 2016)", "key": {"[1]": {"type": "in vivo, CD-1 mice", "details": "for half-life / AUC: female, CD-1, mouse, ip; for AUC: area under the concentration-time curve"}, "[2]": {"type": "in vivo, CD-1 mice"}, "[3]": {"experiment": "CIT metabolism in placental microsomal preparations", "type": "in vitro ADME, mice", "details": "E14 and E18, 500 ng/mL CIT, 2 h"}, "[4]": {"experiment": "CIT metabolism in fetal liver microsomal preparations", "type": "in vitro ADME, mice", "details": "2 h incubation"}, "[5]": {"experiment": "Ex vivo transplacental transfer of CIT and DCIT", "type": "in vitro ADME, mice"}, "SERT": {"target": "SERT", "details": "read-out: inhibitory constant (Ki) of SERT-mediated 5-HT uptake; cited from earlier work"}, "[6]": {"details": "cited from earlier work"}, "[7]": {"details": "patients, racemic CIT; cited from earlier work"}, "[8]": {"details": "nonpregnant mice, fixed dose 0.6 mg CIT ip, serum"}, "[9]": {"details": "pregnant mice GD14, weight-adjusted dose 20 mg/kg CIT ip, maternal serum"}, "[10]": {"details": "pregnant mice GD18, weight-adjusted dose 20 mg/kg CIT ip, maternal serum"}, "[11]": {"details": "pregnant mice GD18FD, fixed dose 0.6 mg CIT ip, maternal serum"}}, "note": "Like-named read-outs stand apart in the source and are kept apart here.", "data": [{"smiles": "CN(C)CCCC1(c2ccc(F)cc2)OCc2cc(C#N)ccc21", "note": "(racemic) [CIT, (±)-citalopram]", "values": [{"measurement": "increase in AUC in the GD18 group over the GD18FD dams", "setting": "[1]; 20 mg/kg vs fixed 0.6 mg CIT ip, dose increased by 100%", "result": 141, "unit": "%"}, {"measurement": "half-life", "setting": "[1]; maternal serum, 0.6 mg", "result": "0.93 ± 0.06", "unit": "h"}, {"measurement": "AUC", "setting": "[1]; maternal serum, 0.6 mg, pregnant mice GD18FD, fixed dose 0.6 mg CIT ip", "result": "927 ± 28", "unit": "ng·h/mL"}, {"measurement": "half-life", "setting": "[1]; maternal serum, 20 mg/kg", "result": "1.08 ± 0.07", "unit": "h"}, {"measurement": "half-life", "setting": "[1]; serum, 0.6 mg", "result": "1.06 ± 0.04", "unit": "h"}, {"measurement": "AUC", "setting": "[1]; serum, 0.6 mg, nonpregnant mice, fixed dose 0.6 mg CIT ip", "result": "1230 ± 39", "unit": "ng·h/mL"}, {"measurement": "half-life", "setting": "[1]; serum, 20 mg/kg", "result": "1.05 ± 0.03", "unit": "h"}, {"measurement": "reduction in the AUC of serum CIT in GD18FD dams compared to nonpregnant mice", "setting": "[1]; fixed dose 0.6 mg CIT ip", "result": 25, "unit": "%"}, {"measurement": "CIT absorption phase", "setting": "[1]; nonpregnant mice, fixed dose 0.6 mg CIT ip", "result": 1.67}, {"measurement": "C0, peak concentration", "setting": "[1]; [8]", "result": "2050 ± 36", "unit": "ng/mL"}, {"measurement": "CL, clearance", "setting": "[1]; [8]", "result": "486 ± 9", "unit": "mL·h"}, {"measurement": "VD, volume of distribution", "setting": "[1]; [8]", "result": "29.3 ± 2.3", "unit": "mL"}, {"measurement": "AUCdn, dose-normalized AUC", "setting": "[1]; [9]", "result": "1.45 ± 0.10 (ng × h/mL)μg"}, {"measurement": "C0, peak concentration", "setting": "[1]; [9]", "result": "2278 ± 31", "unit": "ng/mL"}, {"measurement": "CL, clearance", "setting": "[1]; [9]", "result": "689 ± 15", "unit": "mL·h"}, {"measurement": "VD, volume of distribution", "setting": "[1]; [9]", "result": "41.7 ± 2.5", "unit": "mL"}, {"measurement": "AUCdn, dose-normalized AUC", "setting": "[1]; [10]", "result": "1.86 ± 0.20 (ng × h/mL)μg"}, {"measurement": "C0, peak concentration", "setting": "[1]; [10]", "result": "2353 ± 33", "unit": "ng/mL"}, {"measurement": "VD, volume of distribution", "setting": "[1]; [10]", "result": "50.9 ± 2.0", "unit": "mL"}, {"measurement": "CIT absorption phase", "setting": "[1]; pregnant mice GD18FD, fixed dose 0.6 mg CIT ip", "result": 1.76}, {"measurement": "AUCdn, dose-normalized AUC", "setting": "[1]; [11]", "result": "1.48 ± 0.21 (ng × h/mL)μg"}, {"measurement": "C0, peak concentration", "setting": "[1]; [11]", "result": "1667 ± 38", "unit": "ng/mL"}, {"measurement": "CL, clearance", "setting": "[1]; [11]", "result": "647 ± 20", "unit": "mL·h"}, {"measurement": "VD, volume of distribution", "setting": "[1]; [11]", "result": "36.0 ± 2.6", "unit": "mL"}, {"measurement": "increase in VD as gestation advanced from GD14 to GD18", "setting": "[1]; weight-adjusted dose 20 mg/kg CIT ip", "result": 22, "unit": "%"}, {"measurement": "time of peak fetal serum CIT concentration following maternal drug injection", "setting": "[2]; E14 and E18 fetuses, maternal 20 mg/kg CIT ip", "result": 15, "unit": "min"}, {"measurement": "CIT to DCIT metabolic capacity of placental microsomes", "setting": "[3]", "result": "no significant CIT to DCIT metabolic capacity"}, {"measurement": "DCIT generation from fetal liver microsomes", "setting": "[4]; E14, 500 ng/mL CIT", "result": "no measurable DCIT generation"}, {"measurement": "DCIT generation from fetal liver microsomes", "setting": "[4]; E18, 500 ng/mL CIT", "result": "significant rate of CIT to DCIT conversion"}]}, {"smiles": "CNCCCC1(c2ccc(F)cc2)OCc2cc(C#N)ccc21", "note": "(stereo not drawn) [DCIT, desmethylcitalopram]", "values": [{"measurement": "time to peak DCIT concentration in fetal serum", "setting": "[2]; E14, after maternal 20 mg/kg CIT ip", "result": 1, "unit": "h"}, {"measurement": "time to peak DCIT concentration in fetal serum", "setting": "[2]; E18, after maternal 20 mg/kg CIT ip", "result": 2.5, "unit": "h"}, {"measurement": "DCIT in fetal eluate during placental perfusion with CIT (placental metabolism)", "setting": "[5]; E18 placenta perfused with 500 ng/mL CIT, 10 min intervals over 120 min", "result": "not detected"}, {"measurement": "transplacental transfer efficiency of DCIT relative to CIT (fold less efficient)", "setting": "[5]; ex vivo perfusion, E18 placentas", "result": "~2", "unit": "fold"}, {"measurement": "Ki", "setting": "SERT", "result": 14, "unit": "nM"}, {"measurement": "partition coefficient", "setting": "[6]", "result": 0.28}, {"measurement": "mean plasma S/R enantiomer ratio", "setting": "[7]", "result": 0.7}]}]}
